Laboratory results: patent US20240158453A1, “Nucleic Acids That Manipulate Immune Pathways” (Children`s Medical Center Corporation, priority 2017, published 2024)
Starred links: 1 amine or outer side, 2 acyl side, 3 side chain; linkers in the order of their positions; H or OH if unused. Positions of bridges follow the written chain, without caps; N, C: chain ends. Non-standard residues stand in square brackets, D forms with d. Residues, ends and D or L forms follow the SMILES beside them. Chains are numbered I, II in the order given. *: point of attachment. Actinocin(9to1) = Cc1c2oc3c(C)ccc(C(=O)[*:1])c3nc-2c(C(=O)[*:2])c(N)c1=O; NMeV = CN[C@H](C(=O)O)C(C)C; Cbz = O=C(OCc1ccccc1)*; Sar = CNCC(=O)O; CH2F = FC*

What was measured:
[1] = test system: primary BMDMs; test: Seahorse metabolic analysis (ECAR, OCR) of TLR-induced glycolysis; assay type: cell-based; conditions: for ECAR / mitochondrial oxygen consumption (OCR): primary BMDMs or iBMDMs stimulated with the TLR ligand; for TLR-induced ECAR increase: primary BMDMs with inhibitor (2-DG 25 mM; Actinomycin D 1.5 μg/ml; BX795 5 μM; MRT67307 2.5 μM; Triciribine 20 μM), stimulated with LPS, P3C, R848
Method: Seahorse Metabolic Analysis. Extracellular acidification rate (ECAR) and oxygen consumption rate (OCR) were measured with a Seahorse XFe96 Extracellular Flux Analyzer instrument primary BMDMs and iBMDMs
For real-time experiment, primary BMDMs (5×10^4 per well) and iBMDMs (7.5×10^4 per well) were seed in a Seahorse 96 well plate in complete DMEM medium. Cells were allowed to attach to the assay plate for 4-5 hours, then cells were washed one time with serum-free Seahorse Assay Medium and incubated in Seahorse Assay Medium containing 5% FBS, 10 mM Glucose and 2 mM Glutammine in 37° C. incubator without CO2 for 60 min. ECAR and OCR was measured under basal conditions, after treatment with TLR ligands (LPS 1 μg/ml; P3C 1 μg/ml; R848 1 μg/ml) or inhibitors (and their combination). In the assays which required pre-treatment with inhibitors, chemical inhibitors were injected into the wells by the Seahorse Analyzer, and the incubation time were allowed to proceed for 45 min, prior to the injection of TLR ligands. […] Data represent mean±SEM of triplicate wells.

[2] = test system: TBK1; test: Western analysis of TBK1 activation in primary BMDMs stimulated with TLR ligands; assay type: cell-based
Method: (§1) Western blotting and immunoprecipitation. For western analysis of signaling pathway activation, primary BMDMs (1×10^6) or iBMDMs (0.5×10^6) were seeded in 12 well plates and stimulated with ligands for indicated periods, and subsequently lysed in 300 μl 1×SDS containing 8 M UREA. Lysates were incubated at 65° C. for 15 min. Before SDS-PAGE separation, lysates were passed through a BD 1 ml sub-Q syringe attached to a 26G needle to reduce viscosity. 15 μl of individual samples (15-20 μg protein from whole cell extract) were separated by SDS-PAGE followed by western analysis.

[3] = test system: AKT; test: Western analysis of AKT phosphorylation in primary BMDMs stimulated with TLR ligands; assay type: cell-based; conditions: primary WT BMDMs
Method: as §1

[4] = target: T1, myddosome (UniProt P0AES6+P22366); test: Coumermycin-induced myddosome formation in Myd88-/-/Trif-/- iBMDMs expressing 3×FLAG-MyD88-GyrB; assay type: cell-based, murine; conditions: CM 0.5 μM
T1 construct: expressed in transfected cells; host or cells: Myd88-/-/Trif-/- iBMDMs, retroviral transduction (pMSCV-IRES-GFP)
Method: (§2) Gene expression analysis and ELISA. RNA was isolated from cell cultures using Qiashedder (Qiagen) and GeneJET RNA Purification Kit (Life Technologies). Purified RNA was analyzed for gene expression on a CFX384 real time cycler (Bio-rad) using TaqMan RNA-to-CT 1-Step Kit (Applied Biosystems) with probes specific for Rsad2, II-1b, Il-6 and Gapdh.
For myddosome isolation, iBMDMs (5×10^6) were stimulated with ligands for indicated times, and subsequently lysed in 400 μL of lysis buffer containing 50 mM Tris-HCl (pH 7.5), 150 mM NaCl, 5% Glycerol, 1 mM Sodium dioxycholate and 1% NP40. Protease inhibitors and phosphatase inhibitors were added prior to cell lysis. Lysates were spun at top speed for 15 minutes at a table-top centrifuge in the cold room (at 4° C.). The cleared supernatants were collected and 80 μL of the supernatants was saved as sample inputs. 0.5 μg of the anti-MyD88 antibody with 15 15 μl (bed volume) of protein G sepharose (for endogenous MyD88) or 15 μl (bed volume) of anti-FLAG (M2) agarose (for 3×FLAG-MyD88 alleles) was added to the remaining supernatants and the incubation were allowed to proceed for 4-5 hr at 4° C. on a nutator. The beads containing the protein complexes were then washed for 3 times with lysis buffer, and 60 μL of SDS loading buffer was added. The protein complexes were further eluted by heating at 65° C. for 15 minutes. A portion of eluted protein complexes (20 μl) were separated by SDS-PAGE and analyzed by western blot.
Cells were fixed at room temperature for 30 min, permeabilized with 0.2% Triton X-100 for 5 min at room temperature and […] with 2% goat serum in PBS supplemented with 50 mM ammonium chloride. Primary and secondary antibody staining were performed following product instructions. Working concentrations of primary antibodies were used as the following: pTBK1 (1:100), pp 38 (1:100), FLAG (M2) (1:100). Samples were imaged by the Zeiss 880 laser scanning confocal microscope.

[5] = test system: Myd88-/-/Trif-/- iBMDMs; test: PI staining and LDH release quantification (TLR-induced necroptosis); assay type: cell-based, murine; conditions: MyD88-RIP3 expressing cells; GSK872 2.5 μM; Nec-1 5 μM; ZVAD 10 μM
Method: (§3) PI staining and LDH release quantification. For experiments measuring end-point PI staining, PI (5 μM) was included in the culture media to monitor transient pore formation at the last 30 min for each incubation period. A Tecan plate reader was used to measure PI staining (excitation 535 nm, emission 617 nm). Supernatants were assayed for LDH release freshly after stimulation time courses using the Pierce LDH cytotoxicity colorimetric assay kit per the manufacturer's instruction. The same Tecan plate reader was used to measure LDH release (absorbance 490 nm and 680 nm). Cells treated with detergent-containing lysis buffer were used as positive control for PI staining, the resulted supernatants from treated cells were used as positive control for LDH release quantification.
Generation of synthetic MyD88 molecules. To generate MyD88-NpLxIS and MyD88 CpLxIS alleles, the cDNA sequence encoding the STING pLxIS motif (340-378 a.a.) was fused in tandem then attached to the cDNA sequence encoding the MyD88 protein either at the 5-prime end (for MyD88-NpLxIS) or at the 3-prime end (for MyD88-CpLxIS). The fusion cDNAs were then synthesized as gBLOCKs via IDT. The mutant alleles were also synthesized as gBLOCKs. To generate the MyD88-RIP3 allele, the cDNA sequence encoding the full-length RIP3 was attached the MyD88-encoding cDNA sequence at the 3-prime end. The fusion cDNA was then synthesized as a gBLOCK via IDT. All synthetic DNA sequences were optimized to avoid internal repeats and for optimal expression in murine cells via the IDT online program.

[6] = test system: primary BMDMs; test: LDH release from primary BMDMs stimulated with LPS in the presence of inhibitors; assay type: cell-based; conditions: 18 hr
Method: as §3

[7] = test system: Myd88-/-/Trif-/- iBMDMs expressing MyD88-RIP3; test: Microscopy imaging of cell morphology; assay type: cell-based, murine
Method: Microscopy imaging of cell morphology and live cell imaging. To determine cell morphology after TLR stimulation, Myd8^−/−/Trif^−/− iBMDMs expressing MyD88 and MyD88-RIP3 were seeded in 12-well plates (0.5×10^6 per well) and were subjected to indicated treatments (Staurosporine 1 μM; TLR ligands 1 μg/ml) to induce cell death. For static image capture, a Nikon Eclipse TS100 microscope was used with 40× magnification. Images were processed with the “NIS-Elements F” software. Representative images were chosen from at least three randomly chosen fields from one representative experiment of three independent experiments.

[8] = test system: PARP; test: PARP cleavage by western analysis; assay type: cell-based, murine; conditions: Myd88-/-/Trif-/- iBMDMs expressing MyD88-RIP3, TLR ligands or staurosporine 1 μM, 6 hr
Method: as §1

[9] = test system: IRF3; test: Western analysis of IRF3 activation in primary BMDMs stimulated with TLR ligands; assay type: cell-based
Method: as §1

[10] = target: T2, TLR4 (Mus musculus, UniProt Q9JHF9+Q9QUK6); test: Isolation of protein complexes associated with activated TLR4; assay type: cell-based; conditions: iBMDMs, LPS 100 ng/ml, within minutes
T2 construct: endogenous in cells; host or cells: WT iBMDMs
T2 sequence (Q8R4K2 whole entry): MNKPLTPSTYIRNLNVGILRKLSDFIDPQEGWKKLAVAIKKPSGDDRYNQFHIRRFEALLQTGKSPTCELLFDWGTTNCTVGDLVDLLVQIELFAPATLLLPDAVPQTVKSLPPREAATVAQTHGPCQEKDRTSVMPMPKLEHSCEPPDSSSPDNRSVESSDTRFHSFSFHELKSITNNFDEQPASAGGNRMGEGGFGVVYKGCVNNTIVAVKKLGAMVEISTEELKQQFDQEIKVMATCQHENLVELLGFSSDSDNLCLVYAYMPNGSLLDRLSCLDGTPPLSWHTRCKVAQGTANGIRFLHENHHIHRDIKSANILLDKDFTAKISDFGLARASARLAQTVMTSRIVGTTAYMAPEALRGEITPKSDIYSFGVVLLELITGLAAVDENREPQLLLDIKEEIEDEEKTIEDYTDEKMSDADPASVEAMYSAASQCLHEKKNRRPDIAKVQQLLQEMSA
T2 sequence (Q9QUK6 26-835): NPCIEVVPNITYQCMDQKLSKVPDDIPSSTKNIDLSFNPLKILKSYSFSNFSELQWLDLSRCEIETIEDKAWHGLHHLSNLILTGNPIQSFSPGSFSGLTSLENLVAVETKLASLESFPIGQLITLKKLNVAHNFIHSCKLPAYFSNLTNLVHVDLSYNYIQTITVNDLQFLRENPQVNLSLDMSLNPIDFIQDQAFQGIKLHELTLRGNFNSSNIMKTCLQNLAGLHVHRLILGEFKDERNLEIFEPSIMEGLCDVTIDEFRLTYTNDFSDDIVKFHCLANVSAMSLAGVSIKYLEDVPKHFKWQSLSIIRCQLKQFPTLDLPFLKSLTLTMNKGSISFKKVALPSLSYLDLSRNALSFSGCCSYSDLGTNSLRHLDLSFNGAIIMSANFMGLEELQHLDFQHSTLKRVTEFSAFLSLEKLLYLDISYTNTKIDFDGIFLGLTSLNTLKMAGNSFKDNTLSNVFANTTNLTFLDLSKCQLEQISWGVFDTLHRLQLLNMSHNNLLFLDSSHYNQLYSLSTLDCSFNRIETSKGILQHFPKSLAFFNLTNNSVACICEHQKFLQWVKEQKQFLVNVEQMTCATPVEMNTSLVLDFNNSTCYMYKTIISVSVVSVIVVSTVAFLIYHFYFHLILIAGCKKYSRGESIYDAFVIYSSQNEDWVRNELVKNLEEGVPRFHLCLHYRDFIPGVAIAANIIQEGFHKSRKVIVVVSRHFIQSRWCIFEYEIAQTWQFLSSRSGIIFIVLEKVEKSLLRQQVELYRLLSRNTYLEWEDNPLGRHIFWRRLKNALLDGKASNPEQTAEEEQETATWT
T2 sequence (Q9JHF9 19-160): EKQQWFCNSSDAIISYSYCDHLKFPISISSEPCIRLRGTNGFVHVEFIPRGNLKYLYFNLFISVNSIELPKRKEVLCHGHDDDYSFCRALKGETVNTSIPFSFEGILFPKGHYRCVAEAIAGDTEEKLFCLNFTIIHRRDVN
T2 sequence (P22366 whole entry, further chain): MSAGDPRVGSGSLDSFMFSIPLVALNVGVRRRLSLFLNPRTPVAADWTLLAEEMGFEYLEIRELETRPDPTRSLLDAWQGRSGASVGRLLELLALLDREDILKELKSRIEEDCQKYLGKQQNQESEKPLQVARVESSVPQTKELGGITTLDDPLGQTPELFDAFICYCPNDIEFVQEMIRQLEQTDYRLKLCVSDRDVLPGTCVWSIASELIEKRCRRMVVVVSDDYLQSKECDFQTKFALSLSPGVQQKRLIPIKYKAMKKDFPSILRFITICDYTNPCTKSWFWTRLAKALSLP
T2 sequence (Q8CFA1 whole entry, further chain): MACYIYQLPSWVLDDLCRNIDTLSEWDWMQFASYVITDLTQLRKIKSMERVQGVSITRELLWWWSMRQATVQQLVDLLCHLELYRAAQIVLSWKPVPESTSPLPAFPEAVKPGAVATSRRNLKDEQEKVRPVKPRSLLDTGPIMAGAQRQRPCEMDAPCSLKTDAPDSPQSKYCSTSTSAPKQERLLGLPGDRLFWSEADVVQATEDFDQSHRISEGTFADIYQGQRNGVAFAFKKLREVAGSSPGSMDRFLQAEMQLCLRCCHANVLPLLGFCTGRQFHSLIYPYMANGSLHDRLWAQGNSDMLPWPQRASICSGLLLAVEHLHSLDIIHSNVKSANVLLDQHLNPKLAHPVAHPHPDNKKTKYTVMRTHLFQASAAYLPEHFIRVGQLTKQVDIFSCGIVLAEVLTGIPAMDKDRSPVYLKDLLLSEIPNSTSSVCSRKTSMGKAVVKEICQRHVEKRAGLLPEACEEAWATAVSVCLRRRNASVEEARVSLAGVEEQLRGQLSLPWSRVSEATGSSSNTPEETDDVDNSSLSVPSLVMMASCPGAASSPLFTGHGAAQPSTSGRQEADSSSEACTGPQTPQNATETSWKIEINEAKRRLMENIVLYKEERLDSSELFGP
Method: For isolation of protein complexes associated with activated TLRs, cells were lysed using a modified lysis buffer containing 50 mM HEPES, 150 mM NaCl, 0.5% DDM (n-Dodecyl-β-D-Maltoside), 0.05% CHS (cholesteryl hemisuccinate). This buffer is suitable for the isolation of membrane protein complexes. 0.5 μg of biotinylated anti-TLR4 (Sal5-21) antibody was used (per sample) to capture the TLR4 signaling complex with streptavidin agarose. 15 μl (bed volume) of anti-HA agarose was used (per sample) to capture the TLR9-HA signaling complex. Immunoprecipitates were washed 3 times with the modified lysis buffer and analyzed by western blot.

[11] = test system: glycolysis; test: 2-DG treatment of TLR-activated cells (Example 6); assay type: cell-based
[12] = test system: Il-1b and Il-6 transcripts; test: qPCR of TLR-induced Il-1b and Il-6 transcripts in primary BMDMs; assay type: cell-based; conditions: primary BMDMs pretreated with ActD 1.5 μg/ml for 40 min, TLR ligands 4 h
Method: as §2

`CCOCc1nc2c(N)nc3ccccc3c2n1CC(C)(C)O` [R848] was tested, and the ECAR [1] was “increased ECAR rapidly”, the “mitochondrial oxygen consumption (OCR)” value [1] was “without causing discernible changes” and the “TBK1 activation (pTBK1)” value [2] was “activated”. The AKT phosphorylation [3] was “induced AKT phosphorylation”.
In the case of `O=C(NCCCNc1nc(Nc2cccc(NC(=O)N3CCCC3)c2)ncc1I)c1cccs1` [BX795], the “TLR-induced ECAR increase” value [1] is reported as “dampened”.
In the case of coumermycin [CM], the myddosome formation [4] is reported as “induced myddosome formation”, the “p38 activation (nuclear staining pattern)” value ([4]; 30 min) is reported as “clearly activated” and the “pTBK1 staining of MyD88 specks” value ([4]; 30 min) is reported as “stained positive for pTBK1”. The “phosphorylated p38 (pp38) within MyD88 specks” value ([4]; 30 min) was “not detected within MyD88 specks”, the “cells with distinct MyD88 specks” value ([4]; 30 min, immunofluorescence) was “more than 60%” and the Il-1b expression ([4]; 4 hr, qPCR) was “comparable to that induced by LPS and P3C treatment”.
With `COC(=O)C[C@H](NC(=O)[C@H](C)NC(=O)[C@@H](NC(=O)OCc1ccccc1)C(C)C)C(=O)CF` [ZVAD] (Cbz-Val-Ala-Asp(OMe)-CH2F) the “TLR-induced LDH release (cell death) with inhibitor” value [5] was “failed to prevent”, the “TLR-induced PI staining (membrane rupture) with inhibitor” value [5] was “failed to prevent” and the “necroptosis (LDH release) of primary BMDMs” value ([6]; ZVAD 10 μM pre-treatment followed by LPS) was “induced necroptosis”.
For `CN[C@@H]1C[C@H]2O[C@@](C)([C@@H]1OC)n1c3ccccc3c3c4c(c5c6ccccc6n2c5c31)C(=O)NC4` [staurosporine], the cell morphology ([7]; 1 hr post-stimulation, TLR ligands or staurosporine 1 μM) was “membrane blebbing, generation of apoptotic bodies/vesicles” and the PARP cleavage [8] was “induced PARP cleavage”.
With `CN1C(=O)C(Cc2c[nH]c3ccccc23)NC1=S` (stereo not shown) [Nec-1] the “TLR-induced LDH release (cell death) with inhibitor” value [5] was “unaffected”, the “TLR-induced PI staining (membrane rupture) with inhibitor” value [5] was “unaffected” and the “prevention of ZVAD plus LPS induced necroptosis” value ([6]; primary BMDMs) was “could be prevented”.
With lipopolysaccharide [LPS] the ECAR [1] was “increased ECAR rapidly”, the “mitochondrial oxygen consumption (OCR)” value [1] was “without causing discernible changes” and the “TBK1 activation (pTBK1)” value [2] was “activated”. For the same compound, the “IRF3 activation (pIRF3)” value [9] was “activated”, the AKT phosphorylation [3] was “induced” and the “recruitment of endogenous MyD88, IRAK2 and IRAK4 to TLR4” value [10] was “inducibly recruited”.
`OCC1OC(O)CC(O)C1O` (stereo not shown) [2-DG] was tested, and the “TLR-induced ECAR increase” value [1] was “blocked”, the “cytokine gene transcription versus translation” value [11] was “uncoupled cytokine gene transcription from translation” and the “host responses at the receptor proximal” value [11] was “did not affect”.
`CC(C)S(=O)(=O)c1ccc2nccc(Nc3ccc4scnc4c3)c2c1` [GSK872] was tested, and the “TLR-induced LDH release (cell death) with inhibitor” value [5] was “blocked”, the “TLR-induced PI staining (membrane rupture) with inhibitor” value [5] was “blocked” and the “morphological changes of TLR-stimulated MyD88-RIP3 cells with inhibitor pre-treatment” value ([7]; GSK872 2.5 μM) was “could be suppressed”.
`Cc1c2oc3c(C)ccc(C(=O)N[C@@H]4C(=O)N[C@H](C(C)C)C(=O)N5CCC[C@H]5C(=O)N(C)CC(=O)N(C)[C@@H](C(C)C)C(=O)O[C@@H]4C)c3nc-2c(C(=O)N[C@@H]2C(=O)N[C@H](C(C)C)C(=O)N3CCC[C@H]3C(=O)N(C)CC(=O)N(C)[C@@H](C(C)C)C(=O)O[C@@H]2C)c(N)c1=O` [actinomycin D] (I: T[dV]P[Sar][NMeV] / II: T[dV]P[Sar][NMeV]; ester I:1-I:C, II:1-II:C; linker I:N-II:N via Actinocin(9to1)) was tested, and the “TLR-induced ECAR increase” value [1] was “still able to increase ECAR” and the “TLR-induced transcription of Il-1b and Il-6” value [12] was “prevented”.
In the case of `O=C(NCCCNc1nc(Nc2cccc(CN3CCOCC3)c2)ncc1C1CC1)C1CCC1` [MRT67307], the “TLR-induced ECAR increase” value [1] is reported as “dampened”.
